Consider 1 compound from US20250019367A1, “Methods for Separation of Enantiomers” (Mirati Therapeutics, Inc., priority 2021, published 2025).

This data set is described as follows: Solid form stability versus water activity. The data set is classed as physicochemical. The settings on record: IPA-water mixtures, water activity αw. The source says: In certain such embodiments, the reacting step (c) occurs in an iso-propyl alcohol (IPA, i-PrOH) solution, or isopropyl alcohol and water solution. […] mixtures of IPA-water (e.g. 90/10 v/v) are preferred to maximize recovery and control API form. […] In certain embodiments, the step (c) solution is optionally seeded with M-enantiomer free base Compound 2.

On to `Cn1ncc(-c2ccc3c(=O)[nH]nc(CN)c3c2)c1-c1c(F)c(Cl)cc(OC2CC2)c1C#N` [Free Base Type A, (2M)-2-(4-(4-(aminomethyl)-1-oxo-1,2-dihydrophthalazin-6-yl)-1-methyl-1H-pyrazol-5-yl)-4-chloro-6-cyclopropoxy-3-fluorobenzonitrile], for which the “water activity at which the form is the most stable” value is recorded as ≥ 0.13.
